From paper PMC4049093 (ChemMedChem, 2012)
“Also recorded” adds a separate entry of the source. Read-outs that look alike come from different tables or passages of the source.

Tests used:
[1] = target: human cannabinoid CB1 receptor (Homo sapiens, UniProt P21554); assay: biochemical; assay type: binding; conditions: for CB1/CB2 selectivity ratio CB1 versus CB2: from Ki values at hCB1 and hCB2
[2] = target: human cannabinoid CB2 receptor (Homo sapiens, UniProt P34972); assay: Competitive radioligand binding, displacement of [3H]-CP55,940 from hCB2
Sequence of human cannabinoid CB2 receptor (P34972 whole entry): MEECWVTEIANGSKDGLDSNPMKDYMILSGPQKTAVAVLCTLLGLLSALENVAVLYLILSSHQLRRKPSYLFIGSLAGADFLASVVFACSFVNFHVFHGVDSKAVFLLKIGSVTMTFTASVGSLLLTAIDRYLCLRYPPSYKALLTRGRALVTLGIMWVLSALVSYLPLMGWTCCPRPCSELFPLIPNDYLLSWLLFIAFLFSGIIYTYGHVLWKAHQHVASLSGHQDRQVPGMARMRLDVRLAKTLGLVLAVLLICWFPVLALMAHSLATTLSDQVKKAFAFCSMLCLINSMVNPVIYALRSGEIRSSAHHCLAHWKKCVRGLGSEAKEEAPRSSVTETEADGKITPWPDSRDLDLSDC

mouse cannabinoid tetrad = assay: Mouse cannabinoid tetrad; conditions: mice, i.p.; WIN 2.5 and 5 mg/kg, 13a 5 and 10 mg/kg
mouse vas deferens = assay: Isolated tissue assay: electrically evoked contractions of mouse vas deferens; conditions: 10^−7–1.8 × 10^−5 M, concentration-response curves

Sequence of human cannabinoid CB1 receptor (P21554 whole entry): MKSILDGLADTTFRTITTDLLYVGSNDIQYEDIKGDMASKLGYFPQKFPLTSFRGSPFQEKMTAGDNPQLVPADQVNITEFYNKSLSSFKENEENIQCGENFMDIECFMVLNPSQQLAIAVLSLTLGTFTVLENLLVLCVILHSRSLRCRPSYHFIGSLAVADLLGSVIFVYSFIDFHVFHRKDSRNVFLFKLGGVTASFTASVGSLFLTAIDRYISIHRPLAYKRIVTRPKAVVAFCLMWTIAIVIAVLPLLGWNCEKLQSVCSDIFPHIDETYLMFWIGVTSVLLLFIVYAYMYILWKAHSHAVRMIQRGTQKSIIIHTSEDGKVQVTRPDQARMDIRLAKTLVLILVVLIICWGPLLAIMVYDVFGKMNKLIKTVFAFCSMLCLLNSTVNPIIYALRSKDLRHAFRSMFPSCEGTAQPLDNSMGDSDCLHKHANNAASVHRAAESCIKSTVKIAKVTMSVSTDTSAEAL

Row | Compound | Binding to CB1 receptor (in words) [1] | CB1/CB2 selectivity ratio CB1 versus CB2 [1] | Binding to CB2 receptor (in words) [2] | Ki [1] [µM] | Ki [2] [µM] | also measured
1 | CCCCCc1cc(O)c2c(c1)OC(C)(C)c1cn[nH]c1-2 [Compound 7, 1,4-Dihydro-4,4-dimethyl-7-pentylchromen[4,3-c]pyrazol-9-ol] | failed to bind to either CB1 or CB2 receptors | 0.5 | failed to bind to either CB1 or CB2 receptors |  |  | Ki ([1]; read-out: hCB1 Ki, [3H]-CP55940 radioligand, membranes of transfected HEK293 EBNA cells, mean ± SEM of at least three experiments): 4.1 ± 0.8 µM; Ki ([2]; read-out: hCB2 Ki, [3H]-CP55940 radioligand, membranes of transfected HEK293 EBNA cells, mean ± SEM of at least three experiments): 2.01 ± 0.5 µM
2 | CCCCCc1cc(O)c2c(c1)OC(C)(C)c1cnn(C)c1-2 [Compound 8a, 1,4-Dihydro-1,4,4-trimethyl-7-pentylchromeno[4,3-c]pyrazol-9-ol] | failed to bind to either CB1 or CB2 receptors | 0.7 | failed to bind to either CB1 or CB2 receptors | 4.7 ± 1.2 | 3.46 ± 1 | 
3 | CCCCCc1cc(O)c2c(c1)OC(C)(C)c1cn(C)nc1-2 [Compound 8b, 2,4-dihydro-2,4,4-trimethyl-7-pentylchromeno[4,3-c]pyrazol-9-ol] | failed to bind to either CB1 or CB2 receptors |  | failed to bind to either CB1 or CB2 receptors | 22.1 ± 1.41 | > 40 | 
4 | CCCCCc1cc(O)c2c(c1)OC(C)(C)c1cnn(CC)c1-2 [Compound 9a, 1-Ethyl-1,4-dihydro-4,4-dimethyl-7-pentylchromeno[4,3-c]pyrazol-9-ol] | failed to bind to either CB1 or CB2 receptors |  | failed to bind to either CB1 or CB2 receptors | 9.61 | > 40 | 
5 | CCCCCc1cc(O)c2c(c1)OC(C)(C)c1cn(CC)nc1-2 [Compound 9b, 2-Ethyl-2,4-dihydro-4,4-dimethyl-7-pentylchromeno[4,3-c]pyrazol-9-ol] | failed to bind to either CB1 or CB2 receptors |  | failed to bind to either CB1 or CB2 receptors | > 40 | 4.45 ± 1.01 | 
6 | CCCCCc1cc(O)c2c(c1)OC(C)(C)c1cnn(-c3ccc(Cl)c(Cl)c3)c1-2 [Compound 10a, 1-(3,4-Dichlorophenyl)-1,4-dihydro-4,4-dimethyl-7-pentylchromeno[4,3-c]pyrazol-9-ol] | binds weakly to the CB1 cannabinoid receptor |  |  | 0.607 ± 0.151 | > 40 | 
7 | CCCCCCC(C)(C)c1cc(O)c2c(c1)OC(C)(C)c1cn[nH]c1-2 [Compound 11, 1,4-Dihydro-4,4-dimethyl-7-(1,1-dimethylheptyl)chromeno[4,3-c]pyrazol-9-ol] |  | >1000 |  |  | > 40 | 
8 | CCCCCCC(C)(C)c1cc(O)c2c(c1)OC(C)(C)c1cn(C)nc1-2 [Compound 12b, 7-(1,1-Dimethylheptyl)-2,4-dihydro-2,4,4-trimethylchromeno[4,3-c]pyrazol-9-ol] |  | >1000 |  |  | > 40 | 
9 | CCCCCCC(C)(C)c1cc(O)c2c(c1)OC(C)(C)c1cnn(CC)c1-2 [Compound 13a, 7-(1,1-Dimethylheptyl)-1-ethyl-1,4-dihydro-4,4-dimethylchromeno[4,3-c]pyrazol-9-ol] |  | >1000 |  |  | > 40 | Antinociception in the hot-plate test (cannabinoid tetrad) (mouse cannabinoid tetrad): did not modify any of the signs of cannabinoid tetrad; Catalepsy on a ring (cannabinoid tetrad) (mouse cannabinoid tetrad): did not modify any of the signs of cannabinoid tetrad; Locomotor activity on the rota-rod test (cannabinoid tetrad) (mouse cannabinoid tetrad): did not modify any of the signs of cannabinoid tetrad; Rectal temperature / hypothermia (cannabinoid tetrad) (mouse cannabinoid tetrad): did not modify any of the signs of cannabinoid tetrad; Effect on electrically evoked contractile response of mouse vas deferens (mouse vas deferens): highest effectiveness; also recorded: most effective cannabinoid agonist
10 | CCCCCCC(C)(C)c1cc(O)c2c(c1)OC(C)(C)c1cn(CC)nc1-2 [Compound 13b, 7-(1,1-dimethylheptyl)-2-ethyl-2,4-dihydro-4,4-dimethylchromeno[4,3-c]pyrazol-9-ol] |  | >1000 |  |  | > 40 | 
11 | CCCCCCC(C)(C)c1cc(O)c2c(c1)OC(C)(C)c1cnn(-c3ccc(Cl)c(Cl)c3)c1-2 [Compound 14a, 1-(3,4-Dichlorophenyl)-7-(1,1-dimethylheptyl)-1,4-dihydro-4,4-dimethylchromeno[4,3-c]pyrazol-9-ol] | reduced affinity for both receptors; also recorded: loss of affinity for CB1 | 0.5 | reduced affinity for both receptors; also recorded: moderate affinity for CB2 receptor |  |  | 
12 | CCCCCCC(C)(C)c1cc(O)c2c(c1)OC(C)(C)c1cnn(-c3ccc(Cl)cc3Cl)c1-2 [Compound 15a, 1-(2,4-Dichlorophenyl)-7-(1,1-dimethylheptyl)-1,4-dihydro-4,4-dimethylchromeno[4,3-c]pyrazol-9-ol] |  | >1000 |  |  | > 40 | 
13 | Cc1c(C(=O)c2cccc3ccccc23)c2cccc3c2n1[C@H](CN1CCOCC1)CO3 [WIN55,212-2, reference compound] |  |  |  |  |  | Antinociception in the hot-plate test (cannabinoid tetrad) (mouse cannabinoid tetrad): induced antinociceptive effect in the hot-plate test; Catalepsy on a ring (cannabinoid tetrad) (mouse cannabinoid tetrad): catalepsy; Locomotor activity on the rota-rod test (cannabinoid tetrad) (mouse cannabinoid tetrad): reduction of the locomotor activity; Rectal temperature / hypothermia (cannabinoid tetrad) (mouse cannabinoid tetrad): hypothermia
